Activity calls are given as the source filed them.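 Rule for the calls: active = compounds giving half or more protection of infected cells from virus-caused growth loss, again on retest; inactive = the rest.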
System: CEM cells HIV-1 protection, formazan growth assay
Assay: NCI AIDS Antiviral Assay
Conditions: for IC50: measured here: growth of uninfected CEM cells
Outline: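 Human CEM cells, uninfected and HIV-1-infected, received five drug concentrations, and growth was read by soluble formazan assay. Compounds giving at least 50% protection were retested; reproducible 100% protection defined confirmed active.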

SMILES	EC50 [µM]	IC50 [µM]	outcome
CCCCCCCCCCCCCCCCCCOCC(COP(=O)(O)OCC1OC(n2cc(C)c(=O)[nH]c2=O)CC1N=[N+]=[N-])OC(=O)CCCCCCCCCCCCCCC (centres undefined)	> 50.1	> 50.1	
COc1ccc2cccc(C(=O)c3ccc(C)c4c3CCC4)c2c1			inactive
CC(C)(C)[Si](C)(C)OCC1OC(n2ccc(=O)[nH]c2=O)C(O[Si](C)(C)C(C)(C)C)C1CC#N (centres undefined)	> 200	11.7	inactive
CC(C)(C)OC(=O)C1CCC/C1=N/Nc1ccc([N+](=O)[O-])cc1[N+](=O)[O-] (centres undefined)	> 200	30.2	
COc1cccc(OC)c1C1ON=C(c2ccccc2)N1C12CC3CC(CC(C3)C1)C2 (centres undefined)	> 200	141	
NC(=S)N/N=C(/CC(=O)c1ccccc1)C(=O)Nc1ccc(Cl)c(Cl)c1	> 87.1	> 87.1	
Cc1occc1C(=S)Nc1ccc(Cl)c(/C=N/OC2CCCC2)c1	0.174	14.5	
COc1ccc(C2S/C(=C\c3ccc(OC)cc3OC)C(=O)N2NC(=O)Cc2ccccc2)cc1 (centres undefined)	> 52.5	> 52.5	
CC(=O)Oc1ccc2cc(-c3ccccc3OC(C)=O)c(=O)oc2c1	> 200	74.1	
COc1ccccc1C1SCC(=O)N1c1ccc(-c2ccc(-n3c(-c4ccccc4)nc4ccccc4c3=O)cc2)cc1 (centres undefined)	> 200	> 200	
COC1=CC(=O)C(C#CCOCc2ccccc2)=CC1=O	> 200	14.8	
COc1cc(/C=C/c2nc(NC(=S)Nc3ccccc3)nnc2C)cc(OC)c1OC	> 200	13.8	
Cc1nn2c(=O)c3c([N+](=O)[O-])c(C)nn3c(=O)c2c1[N+](=O)[O-]	> 562	> 562	
Cc1c(C(=O)C/C(=N/NC(=O)CC#N)C(N)=O)[n+](=O)c2ccccc2n1[O-]	> 26.9	> 26.9	
Cc1cn(C2CC(Sc3cn[nH]n3)C(CO)O2)c(=O)[nH]c1=O (centres undefined)	> 380	75.9	
COc1ccccc1/C=C(\NC(=O)c1ccccc1)c1nc2ccc(Cl)cc2[nH]1	> 46.8	> 46.8	
CCCCc1ccc(-n2sc3ncccc3c2=O)cc1	1.74	8.32	
O=c1[nH]c(=O)n(COCc2ccccc2)c2ccc([N+](=O)[O-])cc12	> 200	> 200	
COc1ccc(SCc2ccc(C(=O)O)cc2[N+](=O)[O-])cc1	> 295	162	
Cc1cc(C)nc(NS(=O)(=O)c2ccc(Nc3c4ccc(Cl)cc4nc4c(C(=O)NCCN(C)C)cccc34)cc2)n1	> 214	89.1	
COC1Cc2c(C)c(OC(C)=O)c3cccnc3c2O1 (centres undefined)	> 200	22.4	
O=C(Nc1cccc(C(F)(F)F)c1)C(=O)C(C(=O)c1ccc2ccccc2c1)C1OC(=O)c2ccccc21 (centres undefined)	> 50.1	21.9	
COc1ccc(C2SC(N)=Nc3c2c(C)nn3C(=O)c2ccncc2)cc1OC (centres undefined)	49	170	
FC(F)(Sc1ccccc1)c1nc2ccccc2o1	> 77.6	66.1	
O=S(=O)(SCc1ccccc1)C(c1ccccc1)c1ccccc1	> 105	6.31	
CCC(=O)OC1=C(c2ccccc2)Sc2ccc(Cl)cc2-n2cccc21	> 200	12	
CC(C)N(C(C)C)[PH+]1O[PH+](N(C(C)C)C(C)C)O[PH+](N(C(C)C)C(C)C)O[PH+](N(C(C)C)C(C)C)O1.[C-]#[O+].[C-]#[O+].[C-]#[O+].[C-]#[O+].[C-]#[O+].[C-]#[O+].[C-]#[O+].[C-]#[O+].[Mo].[Mo] (centres undefined)	> 35.5	> 35.5	
CCOC(=O)CN1CCC2CC1c1c([nH]c3ccccc13)C2c1cc2c(cc1OC)N(C)C1C(O)(C(=O)OC)C(OC(C)=O)C3(CC)C=CCN4CCC21C43 (centres undefined)	> 9.55	> 9.55	
CCOC(=O)CN1CC(C2=C(O)CN(CC(=O)OCC)C2=O)=CC1=O			inactive
Cc1cn2c(=O)c3ccccc3nc2s1	> 4.79	> 4.79	

Reference: PubChem BioAssay AID179 (DTP/NCI, 2004)
